In the supplement of paper PMC13207355:
Counter-ions that a name gives are not always drawn.

Assays:
Conditions in all cases: exposure time: 72 h
[1] = system: E31 (patient-derived glioblastoma stem cells of proneural subtype); assay: phenotypic distance (Euclidean, principal components) from DMSO controls (arbitrary units); higher = stronger morphological change
[2] = system: FT3469 (normal neural stem cell line); assay: as above
[3] = system: E57 (patient-derived glioblastoma stem cells of mesenchymal subtype); assay: as above
[4] = system: E21 (patient-derived glioblastoma stem cells of mesenchymal subtype); assay: as above
[5] = system: E13 (patient-derived glioblastoma stem cells of classical subtype); assay: as above
[6] = system: E28 (patient-derived glioblastoma stem cells of classical subtype); assay: as above
[7] = system: E34 (patient-derived glioblastoma stem cells of proneural subtype); assay: as above
[8] = system: E31; assay: surviving fraction (nuclei count normalised to DMSO); higher = more cells surviving (less toxic)
[9] = system: FT3469; assay: as above
[10] = system: E57; assay: as above
[11] = system: E21; assay: as above
[12] = system: E13; assay: as above
[13] = system: E28; assay: as above
[14] = system: E34; assay: as above
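Throughout, for phenotypic distance (Euclidean, principal components) from DMSO controls: cell Painting imaging in 384-well plates, CellProfiler features reduced to at least 20 principal components, Euclidean distance versus same-plate DMSO vehicle wells (0.1% v/v), median over six images per well.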
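Throughout, for surviving fraction (nuclei count normalised to DMSO): nuclei counted by high-content imaging of Hoechst-stained cells in laminin-coated 384-well plates, relative to 0.1% DMSO vehicle wells, with staurosporine as cell-death control.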

CNCCc1ccccn1 [Betahistine mesylate]
Conditions | phenotypic distance | surviving fraction
[1], 4.1 nM | 0.624 | –
[1], 12.3 nM | 0.892 | –
[1], 37 nM | 0.655 | –
[1], 111.1 nM | 0.749 | –
[1], 333.3 nM | 0.468 | –
[1], 1000 nM | 0.554 | –
[1], 3000 nM | 1.08 | –
[2], 4.1 nM | 0.827 | –
[2], 12.3 nM | 0.751 | –
[2], 37 nM | 0.948 | –
[2], 111.1 nM | 0.634 | –
[2], 333.3 nM | 1.15 | –
[2], 1000 nM | 0.929 | –
[2], 3000 nM | 0.86 | –
[3], 4.1 nM | 4.51 | –
[3], 12.3 nM | 1.49 | –
[3], 37 nM | 1.15 | –
[3], 111.1 nM | 1.23 | –
[3], 333.3 nM | 0.721 | –
[3], 1000 nM | 0.773 | –
[3], 3000 nM | 0.773 | –
[4], 4.1 nM | 1.28 | –
[4], 12.3 nM | 1.7 | –
[4], 37 nM | 0.97 | –
[4], 111.1 nM | 1.14 | –
[4], 333.3 nM | 1.32 | –
[4], 1000 nM | 1.57 | –
[4], 3000 nM | 1.61 | –
[5], 4.1 nM | 0.901 | –
[5], 12.3 nM | 0.868 | –
[5], 37 nM | 1.14 | –
[5], 111.1 nM | 0.834 | –
[5], 333.3 nM | 0.663 | –
[5], 1000 nM | 0.868 | –
[5], 3000 nM | 0.634 | –
[6], 4.1 nM | 0.708 | –
[6], 12.3 nM | 1.01 | –
[6], 37 nM | 0.524 | –
[6], 111.1 nM | 0.891 | –
[6], 333.3 nM | 0.512 | –
[6], 1000 nM | 0.607 | –
[6], 3000 nM | 0.451 | –
[7], 4.1 nM | 0.696 | –
[7], 12.3 nM | 0.75 | –
[7], 37 nM | 0.843 | –
[7], 111.1 nM | 1.03 | –
[7], 333.3 nM | 0.558 | –
[7], 1000 nM | 0.851 | –
[7], 3000 nM | 1.25 | –
[8], 4.1 nM | – | 0.967
[8], 12.3 nM | – | 1.11
[8], 37 nM | – | 0.864
[8], 111.1 nM | – | 1.01
[8], 333.3 nM | – | 0.976
[8], 1000 nM | – | 1.09
[8], 3000 nM | – | 1.1
[9], 4.1 nM | – | 0.941
[9], 12.3 nM | – | 1.08
[9], 37 nM | – | 1.16
[9], 111.1 nM | – | 0.935
[9], 333.3 nM | – | 1.23
[9], 1000 nM | – | 1.18
[9], 3000 nM | – | 1.19
[10], 4.1 nM | – | 0.99
[10], 12.3 nM | – | 0.95
[10], 37 nM | – | 0.987
[10], 111.1 nM | – | 1.04
[10], 333.3 nM | – | 1.01
[10], 1000 nM | – | 0.983
[10], 3000 nM | – | 0.999
[11], 4.1 nM | – | 1.01
[11], 12.3 nM | – | 1.06
[11], 37 nM | – | 0.973
[11], 111.1 nM | – | 0.957
[11], 333.3 nM | – | 1.08
[11], 1000 nM | – | 1.01
[11], 3000 nM | – | 1.17
[12], 4.1 nM | – | 0.978
[12], 12.3 nM | – | 0.933
[12], 37 nM | – | 1.01
[12], 111.1 nM | – | 1.13
[12], 333.3 nM | – | 0.991
[12], 1000 nM | – | 1.05
[12], 3000 nM | – | 1.08
[13], 4.1 nM | – | 0.99
[13], 12.3 nM | – | 1.1
[13], 37 nM | – | 1.08
[13], 111.1 nM | – | 0.858
[13], 333.3 nM | – | 1.04
[13], 1000 nM | – | 1.1
[13], 3000 nM | – | 1.2
[14], 4.1 nM | – | 0.797
[14], 12.3 nM | – | 0.969
[14], 37 nM | – | 0.928
[14], 111.1 nM | – | 1.16
[14], 333.3 nM | – | 1.11
[14], 1000 nM | – | 1.1
[14], 3000 nM | – | 0.927
